Measured values published in ChEMBL document CHEMBL4364320, “An insight into the medicinal perspective of synthetic analogs of indole: A review” (Eur J Med Chem, 2019).
In brackets after ≈: the same amount, converted by molar mass.

Columns and labels:
[1] = tested on: Human immunodeficiency virus 1; assay: Antiviral activity against wild type HIV1 infected in human MT4 cells; format: functional, organism-based; settings: Human immunodeficiency virus 1, MT4
[2] = molecular target: Sodium-dependent serotonin transporter (Homo sapiens, UniProt P31645); assay: Inhibition of 5HT transporter (unknown origin)
Plasmodium falciparum = assay: Antiplasmodial activity against chloroquine-resistant Plasmodium falciparum Dd2; format: functional, organism-based
RAW264.7 [3] = assay: Inhibition of LPS-induced nitric oxide production in mouse RAW264.7 cells preincubated for 15 mins followed by LPS stimulation measured after 20 hrs by griess assay; format: functional, cell-based
[4] = Inhibition of TNFalpha-induced NFkappaB activation in HEK293 cells preincubated for 6 hrs followed by TNFalpha addition by luciferase reporter gene assay; format: cell-based; settings: Homo sapiens
[5] = tested on: Human immunodeficiency virus 1; assay: Antiviral activity against wild type HIV1 3B infected in human MT2 cells after 3 days by BrightGlo luciferase reporter gene assay; format: functional, organism-based; settings: Human immunodeficiency virus 1, 3B, MT2, 72 h
[6] = tested on: Human immunodeficiency virus 1; assay: Antiviral activity against HIV1 infected in human MT4 cells; format: functional, organism-based; settings: Human immunodeficiency virus 1, MT4
[7] = tested on: Mycobacterium tuberculosis; assay: Antimycobacterial activity against Mycobacterium tuberculosis; format: functional
[8] = tested on: Mycobacterium tuberculosis; assay: Antimycobacterial activity against drug-sensitive Mycobacterium tuberculosis; format: functional
Dihydrofolate reductase [9] = molecular target: T1, Dihydrofolate reductase (Homo sapiens, UniProt P00374); assay: Inhibition of human DHFR
T1 sequence (P00374 whole entry): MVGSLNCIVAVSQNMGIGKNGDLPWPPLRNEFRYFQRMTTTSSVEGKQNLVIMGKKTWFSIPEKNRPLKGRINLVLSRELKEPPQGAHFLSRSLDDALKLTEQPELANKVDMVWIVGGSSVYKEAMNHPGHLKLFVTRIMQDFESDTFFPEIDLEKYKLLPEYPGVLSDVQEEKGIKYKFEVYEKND

Dihydrofolate reductase [10] = molecular target: T2, Dihydrofolate reductase (Mycobacterium tuberculosis, UniProt P9WNX1); assay: Inhibition of Mycobacterium tuberculosis H37Rv DHFR
T2 sequence (P9WNX1 whole entry): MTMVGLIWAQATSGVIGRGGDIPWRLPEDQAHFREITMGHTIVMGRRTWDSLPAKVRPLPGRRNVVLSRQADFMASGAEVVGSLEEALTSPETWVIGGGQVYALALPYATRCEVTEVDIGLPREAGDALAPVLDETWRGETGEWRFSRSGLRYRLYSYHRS

[11] = molecular target: T3, Prostaglandin G/H synthase 2 (Homo sapiens, UniProt P35354); assay: Inhibition of recombinant human COX2 assessed as decrease in PGE2 release after 10 mins by EIA
T3 sequence (P35354 whole entry): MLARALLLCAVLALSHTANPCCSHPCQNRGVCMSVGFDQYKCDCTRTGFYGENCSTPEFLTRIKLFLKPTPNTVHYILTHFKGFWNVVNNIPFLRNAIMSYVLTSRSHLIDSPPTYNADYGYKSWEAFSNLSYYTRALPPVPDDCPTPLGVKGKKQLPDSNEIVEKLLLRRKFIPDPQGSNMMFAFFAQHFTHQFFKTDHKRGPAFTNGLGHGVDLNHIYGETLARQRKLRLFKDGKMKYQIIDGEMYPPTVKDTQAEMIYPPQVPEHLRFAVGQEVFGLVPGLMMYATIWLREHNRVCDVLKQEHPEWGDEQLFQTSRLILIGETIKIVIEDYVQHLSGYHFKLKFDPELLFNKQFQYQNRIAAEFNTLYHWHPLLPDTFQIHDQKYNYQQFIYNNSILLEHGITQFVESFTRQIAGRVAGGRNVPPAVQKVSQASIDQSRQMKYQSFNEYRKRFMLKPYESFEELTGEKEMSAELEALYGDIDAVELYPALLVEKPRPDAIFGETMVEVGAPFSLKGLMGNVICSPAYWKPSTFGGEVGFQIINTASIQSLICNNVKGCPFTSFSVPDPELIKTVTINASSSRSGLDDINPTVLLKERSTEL

RAW264.7 [12] = assay: Inhibition of nitric oxide production in mouse RAW264.7 cells by griess assay; format: functional, cell-based
Mus musculus = assay: Antidiabetic activity in db/db mouse assessed as reduction in serum glucose level at 10 to 30 mg/kg, po after 1 week relative to control; format: functional; parameters: scale not given: the % may be the effect or the level left
[13] = tested on: Human immunodeficiency virus 1; assay: Antiviral activity against HIV1 infected in human C8166 cells; format: functional, organism-based; settings: Human immunodeficiency virus 1, C8166

Chain of Sodium-dependent serotonin transporter (P31645 whole entry): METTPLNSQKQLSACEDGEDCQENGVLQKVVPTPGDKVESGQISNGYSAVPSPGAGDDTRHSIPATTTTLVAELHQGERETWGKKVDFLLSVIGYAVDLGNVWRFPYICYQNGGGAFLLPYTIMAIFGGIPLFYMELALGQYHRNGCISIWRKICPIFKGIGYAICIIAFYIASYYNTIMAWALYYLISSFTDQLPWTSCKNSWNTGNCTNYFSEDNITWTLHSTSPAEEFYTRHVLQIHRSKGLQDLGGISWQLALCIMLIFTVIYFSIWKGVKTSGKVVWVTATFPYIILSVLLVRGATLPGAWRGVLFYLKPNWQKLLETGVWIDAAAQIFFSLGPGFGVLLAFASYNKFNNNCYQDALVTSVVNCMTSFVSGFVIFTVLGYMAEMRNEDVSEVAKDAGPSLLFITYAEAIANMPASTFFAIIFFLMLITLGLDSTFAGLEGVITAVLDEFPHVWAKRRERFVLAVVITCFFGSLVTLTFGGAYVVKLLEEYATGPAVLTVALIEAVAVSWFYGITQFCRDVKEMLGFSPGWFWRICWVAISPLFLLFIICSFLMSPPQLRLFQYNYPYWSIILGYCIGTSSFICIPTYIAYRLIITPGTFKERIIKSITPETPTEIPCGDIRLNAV

COP(=O)(c1cc(C)cc(/C=C/C#N)c1)c1c(C(N)=O)[nH]c2ccc(Cl)cc12 (stereo not drawn)
IC50 [1]: 0.08 nM

Fc1cc2c(c(OCCNCCc3c[nH]c4ccc(F)cc34)c1)OCCC2
Ki [2]: 5 nM

CC1=C[C@@H]2c3c(CCN(C)C)c4ccccc4n3[C@@H](c3[nH]c4ccccc4c3CCN(C)C)[C@@H]2C(C)(C)C1
IC50 (Plasmodium falciparum): 80 nM

O/N=C/c1c(-c2ccccc2)[nH]c2ccccc12
IC50 (RAW264.7 [3]): 4400 nM | IC50 [4]: 6900 nM

CCOC(=O)Nc1[nH]c2ccc(Br)cc2c1C(C)(O)C(F)(F)F (stereo not drawn)
IC50 [5]: 3 nM

Cc1cc(C)nc(NS(=O)(=O)c2ccc(/N=C3\C(=O)Nc4ccccc43)cc2)n1
EC50 [6]: 8 µg/mL

N#Cc1ccc(C2SCC(=O)N2NC(=O)c2[nH]c3ccc(F)cc3c2-c2ccccc2)cc1 (stereo not drawn)
MIC99 [7]: 6.25 µg/mL (≈ 13.7 µM)

CNCCc1c(/C=C/[C@@]2(C)C[C@H](C=C(C)C)c3c(CCNC)c4ccccc4n32)[nH]c2ccccc12
IC50 (Plasmodium falciparum): 80 to 1420 nM

CNCCc1c([C@H]2[C@H]3[C@H](C=C(C)CC3(C)C)c3c(CCNC)c4ccccc4n32)[nH]c2ccccc12
IC50 (Plasmodium falciparum): 80 to 1420 nM

C[C@@H]1[C@H]2C[C@@H](C[C@H]1NC(=O)c1cc3c(F)cc(F)cc3[nH]1)C2(C)C
MIC [8]: 0.012 µM (≈ 3.99 ng/mL)

CC(C)=C[C@H]1C[C@](C)(/C=C/c2[nH]c3ccccc3c2CCN(C)C)n2c1c(CCN(C)C)c1ccccc12
IC50 (Plasmodium falciparum): 80 to 1420 nM

CCCCC(O)(c1c(NC(=O)OCC)[nH]c2ccc(Br)cc12)C(F)(F)F (stereo not drawn)
IC50 [5]: 3 nM

CC(=O)c1c(C)n(Cc2ccccc2)c2ccc(OCCCC(=O)O)cc12
IC50 (Dihydrofolate reductase [9]): 980000 nM | IC50 (Dihydrofolate reductase [10]): 150000 nM

COc1ccc2cc(-c3cc4ccccc4[nH]3)ccc2c1
IC50 [4]: 600 nM

CC(=O)N1C(=O)/C(=N\c2ccc(S(=O)(=O)Nc3nc(C)cc(C)n3)cc2)c2ccccc21
EC50 [6]: 8000 nM

CC(C)=C[C@H]1C[C@@](C)(/C=C/c2[nH]c3ccccc3c2CCN(C)C)n2c1c(CCN(C)C)c1ccccc12
IC50 (Plasmodium falciparum): 80 to 1420 nM

C#CCc1cn(C)c2c(O)cccc12
IC50 [11]: 6220 nM | IC50 (RAW264.7 [12]): 39800 nM

O=C(NN1C(=O)CSC1c1ccc([N+](=O)[O-])cc1)c1[nH]c2ccc(F)cc2c1-c1ccccc1 (stereo not drawn)
MIC99 [7]: 6.25 µg/mL (≈ 13.1 µM)

N#Cc1c(-c2ccccc2)[nH]c2ccccc12
IC50 (RAW264.7 [3]): 4800 nM | IC50 [4]: 8500 nM

Cc1c(CC(=O)O)c2cc(O)ccc2n1C(=O)c1ccc(Cl)cc1
Activity (Mus musculus): 44.3%

C[C@@H]1CC[C@H]2[C@@H](C)C(=O)O[C@@H]3O[C@@]4(C)CC[C@@H]1[C@]32OO4 [ARTEMISININ]
IC50 (Plasmodium falciparum): 80 to 1420 nM

CO[C@H]1/C=C/O[C@@]2(C)Oc3c(C)c(O)c4c(O)c(c(/C=N/N5CCN(C)CC5)c(O)c4c3C2=O)NC(=O)/C(C)=C\C=C\[C@H](C)[C@H](O)[C@@H](C)[C@@H](O)[C@@H](C)[C@H](OC(C)=O)[C@@H]1C [RIFAMPIN]
MIC99 [7]: 0.25 µg/mL (≈ 0.304 µM)

CN(CCOc1ccc(CC2SC(=O)NC2=O)cc1)c1ccccn1 (stereo not drawn) [ROSIGLITAZONE]
Activity (Mus musculus): 66%

Cc1cn([C@H]2C[C@H](N=[N+]=[N-])[C@@H](CO)O2)c(=O)[nH]c1=O [ZIDOVUDINE]
EC50 [13]: 1100 nM
